Data taken from patent publication US8815882B2, “Pyrazole aminopyrimidine derivatives as LRRK2 modulators” (Genentech, Inc., priority 2010, dated 2014).

biological target: T1, LRRK2 (Homo sapiens, UniProt Q5S007, G2019S); experiment: In Vitro LRRK2 Assay (LabChip 3000, fluorescently-labeled peptide substrate, ATP); assay type: biochemical; details: Table 9; LRRK2 Ki (micromolar); read-out: LRRK2 Ki (KI)
T1 construct: purchased Invitrogen PV4882 (lot 567054A)
Method: This assay was used to determine a compound's potency in inhibiting activity of LRRK2 by determining, Kiapp, IC50, or percent inhibition values. In a polypropylene plate, LRRK2, fluorescently-labeled peptide substrate, ATP and test compound were incubated together. Using a LabChip 3000 (Caliper Life Sciences), after the reaction the substrate was separated by capillary electrophoresis into two populations: phosphorylated and unphosphorylated. The relative amounts of each were quantitated by fluorescence intensity. LRRK2 Ki was determined according to the equation: Y=V0*(1−(x+Ki*(1+S/Km)+Et)/(2*Et)−(((x+Ki*(1+S/Km)+Et)^2−(4*Et*x))^0.5)/(2*Et))). Ki values in Table 4 and elsewhere herein are shown in μM.
Assay conditions and materials used were as follows:
Compound Plate Preparation:
For serial dilutions, 34.6 μl DMSO was added to columns 3-24.
Total and Blank Preparation:
In Complete Reaction Buffer, substrate was diluted to 4 μM. Equal volumes of Complete Reaction Buffer and 4 μM substrate were combined to obtain the blank. Equal volumes of Complete Reaction Buffer and 4 μM substrate were combined and to the combined solution was added 2× final LRRK2 concentration.
To a 50 μl polypropylene plate, 5 μl/well buffer/substrate was added by hand to Blank wells. A Biomek FX was used to start the kinase reaction (“PLK SAR 23 ATP”). The following were added to the appropriate wells:
5 μl/well compound/ATP in Assay Plate;
5 μl/well kinase/substrate in Assay Plate;
The plate was incubated for 2 hours in the dark. Biomek FX was used to stop the kinase reaction (“PLK Stop”), and 10 μl/well Stop solution was added to the Assay Plate. Results were read on the LabChip 3000.
The LabChip 3000 was run using the job “LRRK2 IC50” with the following job settings: […]

T1 sequence (Q5S007 whole entry G2019S): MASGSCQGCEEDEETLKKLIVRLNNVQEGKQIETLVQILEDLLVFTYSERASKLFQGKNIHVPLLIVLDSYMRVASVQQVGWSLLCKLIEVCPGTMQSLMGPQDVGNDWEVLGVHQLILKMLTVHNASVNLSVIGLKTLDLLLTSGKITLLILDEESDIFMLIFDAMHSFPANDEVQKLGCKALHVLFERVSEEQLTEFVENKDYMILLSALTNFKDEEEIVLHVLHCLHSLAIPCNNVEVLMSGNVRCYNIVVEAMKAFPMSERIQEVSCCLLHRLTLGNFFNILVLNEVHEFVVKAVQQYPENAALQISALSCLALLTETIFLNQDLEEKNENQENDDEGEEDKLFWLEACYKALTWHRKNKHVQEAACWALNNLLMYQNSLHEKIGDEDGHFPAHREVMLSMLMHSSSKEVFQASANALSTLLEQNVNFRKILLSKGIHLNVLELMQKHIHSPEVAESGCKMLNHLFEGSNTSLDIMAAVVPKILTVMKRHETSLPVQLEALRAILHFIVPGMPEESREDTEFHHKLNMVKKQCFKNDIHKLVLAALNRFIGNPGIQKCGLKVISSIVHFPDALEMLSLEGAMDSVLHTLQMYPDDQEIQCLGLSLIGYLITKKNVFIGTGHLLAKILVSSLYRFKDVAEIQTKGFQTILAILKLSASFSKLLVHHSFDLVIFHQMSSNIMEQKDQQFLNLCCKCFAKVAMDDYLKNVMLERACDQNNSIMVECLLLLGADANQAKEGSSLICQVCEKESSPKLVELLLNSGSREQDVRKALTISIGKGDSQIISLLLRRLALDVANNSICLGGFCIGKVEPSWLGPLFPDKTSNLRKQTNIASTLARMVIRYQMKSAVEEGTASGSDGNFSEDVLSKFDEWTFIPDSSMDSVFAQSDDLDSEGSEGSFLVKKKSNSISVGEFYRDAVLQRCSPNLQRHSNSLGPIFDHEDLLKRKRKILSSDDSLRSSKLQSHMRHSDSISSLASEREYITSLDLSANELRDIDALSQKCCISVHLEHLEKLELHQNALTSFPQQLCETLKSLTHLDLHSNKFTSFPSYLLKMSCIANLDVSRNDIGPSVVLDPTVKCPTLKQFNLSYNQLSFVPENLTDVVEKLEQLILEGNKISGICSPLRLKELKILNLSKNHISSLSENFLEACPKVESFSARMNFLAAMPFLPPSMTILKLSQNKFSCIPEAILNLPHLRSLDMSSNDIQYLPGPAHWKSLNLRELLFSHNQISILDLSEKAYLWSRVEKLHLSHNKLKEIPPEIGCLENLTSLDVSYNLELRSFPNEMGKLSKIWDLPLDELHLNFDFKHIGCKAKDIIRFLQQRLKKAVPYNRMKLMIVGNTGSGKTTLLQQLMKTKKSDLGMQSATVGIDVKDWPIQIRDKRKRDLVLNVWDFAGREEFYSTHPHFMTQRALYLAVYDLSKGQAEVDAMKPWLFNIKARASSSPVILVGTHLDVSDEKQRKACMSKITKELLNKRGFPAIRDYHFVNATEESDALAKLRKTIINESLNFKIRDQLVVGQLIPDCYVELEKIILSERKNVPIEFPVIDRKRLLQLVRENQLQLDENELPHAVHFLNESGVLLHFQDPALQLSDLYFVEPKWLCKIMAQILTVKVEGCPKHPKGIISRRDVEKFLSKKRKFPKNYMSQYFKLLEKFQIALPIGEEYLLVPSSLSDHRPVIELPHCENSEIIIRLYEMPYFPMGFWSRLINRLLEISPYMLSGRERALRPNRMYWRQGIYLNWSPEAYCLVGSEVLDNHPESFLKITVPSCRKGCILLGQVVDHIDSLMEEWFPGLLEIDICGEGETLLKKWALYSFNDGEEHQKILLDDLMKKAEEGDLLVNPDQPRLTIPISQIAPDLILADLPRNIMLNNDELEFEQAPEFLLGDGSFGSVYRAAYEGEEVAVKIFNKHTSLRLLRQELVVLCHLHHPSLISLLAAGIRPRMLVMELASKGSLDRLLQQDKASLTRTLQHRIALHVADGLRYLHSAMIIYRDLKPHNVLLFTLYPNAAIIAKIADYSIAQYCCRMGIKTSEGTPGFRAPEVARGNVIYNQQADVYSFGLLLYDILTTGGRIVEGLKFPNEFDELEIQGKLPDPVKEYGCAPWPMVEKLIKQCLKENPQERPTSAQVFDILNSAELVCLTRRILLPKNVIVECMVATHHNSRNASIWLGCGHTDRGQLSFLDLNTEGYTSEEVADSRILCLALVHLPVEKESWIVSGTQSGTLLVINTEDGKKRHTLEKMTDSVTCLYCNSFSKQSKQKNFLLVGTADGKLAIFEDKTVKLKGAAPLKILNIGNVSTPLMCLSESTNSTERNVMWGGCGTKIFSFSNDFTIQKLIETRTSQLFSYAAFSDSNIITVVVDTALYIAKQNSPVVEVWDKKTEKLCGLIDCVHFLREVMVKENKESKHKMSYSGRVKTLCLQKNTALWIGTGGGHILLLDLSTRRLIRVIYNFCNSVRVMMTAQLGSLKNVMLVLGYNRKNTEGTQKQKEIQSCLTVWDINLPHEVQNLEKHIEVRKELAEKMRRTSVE

| SMILES | Ki |
| --- | --- |
| CNc1nc(Nc2cn(C3CCOCC3)nc2C)ncc1C#N [Example 362, 2-(3-methyl-1-(tetrahydro-2H-pyran-4-yl)-1H-pyrazol-4-ylamino)-4-(methylamino) pyrimidine-5-carbonitrile] | 86 nM |
| CCNc1nc(Nc2cnn(C3CCOCC3)c2C)ncc1C#N [Example 371, 4-(ethylamino)-2-(5-methyl-1-(tetrahydro-2H-pyran-4-yl)-1H-pyrazol-4-ylamino) pyrimidine-5-carbonitrile] | 5.2 nM |
| CNc1nc(Nc2cnn(CC(F)(F)F)c2C)ncc1C#N [Example 358, 2-(5-methyl-1-(2,2,2-trifluoroethyl)-1H-pyrazol-4-ylamino)-4-(methylamino) pyrimidine-5-carbonitrile] | 32 nM |
| CNc1nc(Nc2cn(C3CCN(CC(F)(F)F)CC3)nc2C)ncc1C#N [Example 355, 2-(3-methyl-1-(1-(2,2,2-trifluoroethyl)piperidin-4-yl)-1H-pyrazol-4-ylamino)-4-(methylamino) pyrimidine-5-carbonitrile] | 299 nM |
| CNc1nc(Nc2cn(-c3ccccn3)nc2C)ncc1C#N [Example 370, 2-(3-methyl-1-(pyridin-2-yl)-1H-pyrazol-4-ylamino)-4-(methylamino) pyrimidine-5-carbonitrile] | 41.5 nM |

same assay, conditions: Table 10; LRRK2 Ki (micromolar); read-out: LRRK2 Ki (KI)

| SMILES | Ki |
| --- | --- |
| CNc1nc(Nc2cnn(C3(C#N)CCC3)c2C)ncc1C(F)(F)F [Example 446, 1-[5-Methyl-4-(4-methylamino-5-trifluoromethyl-pyrimidin-2-ylamino)-pyrazol-1-yl]-cyclobutane-carbonitrile] | 2.4 nM |
| CNC(=O)C(C)(C)n1cc(Nc2ncc(C(F)(F)F)c(NC3CC3)n2)c(C)n1 [Example 449, 2-[4-(4-Cyclopropylamino-5-trifluoromethyl-pyrimidin-2-ylamino)-3-methyl-pyrazol-1-yl]-N-methyl-isobutyramide] | 1.3 nM |
| CNc1nc(Nc2cn(C(C)(C)C(=O)NCC(F)(F)F)nc2C)ncc1C(F)(F)F [Example 424] | 6.3 nM |

same assay, conditions: read-out: LRRK2 Ki (KI), Table 7

| SMILES | Ki |
| --- | --- |
| CNc1nc(Nc2cc(C(C)C)nn2C)ncc1Cl [Example 42, 5-Chloro-N^2-(5-isopropyl-2-methyl-2H-pyrazol-3-yl)-N^4-methyl-pyrimidine-2,4-diamine] | 16 nM |
| COCCn1cc(Nc2ncc(Cl)c(OC)n2)c(C)n1 [Example 19, 5-Chloro-4-methoxy-N-(1-(2-methoxyethyl)-3-methyl-1H-pyrazol-4-yl)pyrimidin-2-amine] | 15 nM |
| COc1nc(Nc2cnn(-c3ccc(C(=O)N(C)C)cc3)c2C)ncc1Cl [Example 82, 4-[4-(5-Chloro-4-methoxy-pyrimidin-2-ylamino)-5-methyl-pyrazol-1-yl]-N,N-dimethyl-benzamide] | 630 nM |
| Cc1c(Nc2ncc(Cl)c(OC3CCOCC3)n2)cnn1C [Example 9, 5-Chloro-N-(1,5-dimethyl-1H-pyrazol-4-yl)-4-(tetrahydro-2H-pyran-4-yloxy)pyrimidin-2-amine] | 39 nM |

same assay, conditions: read-out: LRRK2 Ki (KI), Table 8

| SMILES | Ki |
| --- | --- |
| CNc1nc(Nc2cnn([C@H](C)COC)c2C)ncc1C(F)(F)F [Example 274, N2-[1-((R)-2-Methoxy-1-methyl-ethyl)-5-methyl-1H-pyrazol-4-yl]-N4-methyl-5-trifluoromethyl-pyrimidine-2,4-diamine] | 18.5 nM |
| CNc1nc(Nc2cn(C(C)(C)c3nnc(C)o3)nc2C)ncc1C(F)(F)F [Example 339, N4-methyl-N2-(3-methyl-1-(2-(5-methyl-1,3,4-oxadiazol-2-yl)propan-2-yl)-1H-pyrazol-4-yl)-5-(trifluoromethyl) pyrimidine-2,4-diamine] | 11.7 nM |
| CNc1nc(Nc2cn(-c3ccnc(C)c3)nc2C)ncc1C(F)(F)F [Example 143, N4-methyl-N2-(3-methyl-1-(2-methylpyridin-4-yl)-1H-pyrazol-4-yl)-5-(trifluoromethyl) pyrimidine-2,4-diamine] | 6.9 nM |
| CNc1nc(Nc2cnn(C3CCN(CCF)CC3)c2C)ncc1C(F)(F)F [Example 284, N2-{1-[1-(2-Fluoro-ethyl)-piperidin-4-yl]-5-methyl-1H-pyrazol-4-yl}-N4-methyl-5-trifluoromethyl-pyrimidine-2,4-diamine] | 4.2 nM |
| CNc1nc(Nc2cn(CC(O)C(C)C)nc2C)ncc1C(F)(F)F (stereo not drawn) [Example 321, 3-Methyl-1-[3-methyl-4-(4-methylamino-5-trifluoromethyl-pyrimidin-2-ylamino)-pyrazol-1-yl]-butan-2-ol] | 10.8 nM |
| CNc1nc(Nc2cn(C3CCCOC3)nc2C)ncc1C(F)(F)F (stereo not drawn) [Example 230, N4-methyl-N2-(3-methyl-1-(tetrahydro-2H-pyran-3-yl)-1H-pyrazol-4-yl)-5-(trifluoromethyl) pyrimidine-2,4-diamine] | 9.6 nM |
| CNc1nc(Nc2cn(CC3(C)COC3)nc2C)ncc1Cl [Example 114, 5-chloro-N4-methyl-N2-(3-methyl-1-((3-methyloxetan-3-yl)methyl)-1H-pyrazol-4-yl)pyrimidine-2,4-diamine] | 19 nM |
| CNc1nc(Nc2cnn(S(=O)(=O)C(C)C)c2C)ncc1C(F)(F)F [Example 218, N2-(1-(isopropylsulfonyl)-5-methyl-1H-pyrazol-4-yl)-N4-methyl-5-(trifluoromethyl) pyrimidine-2,4-diamine] | 8.1 nM |
| CCNc1nc(Nc2cnn(-c3ccc(C#N)cc3)c2C)ncc1C(F)(F)F [Example 162, 4-(4-(4-(ethylamino)-5-(trifluoromethyl)pyrimidin-2-ylamino)-5-methyl-1H-pyrazol-1-yl)benzonitrile] | 0.3 nM |
| CNc1nc(Nc2cn(Cc3ccncn3)nc2C)ncc1C(F)(F)F [Example 329, N4-Methyl-N2-(3-methyl-1-pyrimidin-4-ylmethyl-1H-pyrazol-4-yl)-5-trifluoromethyl-pyrimidine-2,4-diamine] | 5.2 nM |
| CNc1nc(Nc2cnn(C3CN(C(C)C)C3)c2C)ncc1C(F)(F)F [Example 278, N2-[1-(1-Isopropyl-azetidin-3-yl)-5-methyl-1H-pyrazol-4-yl]-N4-methyl-5-trifluoromethyl-pyrimidine-2,4-diamine] | 1.2 nM |
| CNc1nc(Nc2c[nH]nc2C)ncc1C(F)(F)F [Example 103, N4-methyl-N2-(3-methyl-1H-pyrazol-4-yl)-5-(trifluoromethyl) pyrimidine-2,4-diamine] | 9 nM |
| CNc1nc(Nc2cn(C3CCCC3OC)nc2C)ncc1C(F)(F)F (stereo not drawn) [Example 188, N2-(1-(2-methoxycyclo-pentyl)-3-methyl-1H-pyrazol-4-yl)-N4-methyl-5-(trifluoromethyl) pyrimidine-2,4-diamine] | 12 nM |
| CNc1nc(Nc2cn(C)nc2C2CC2)ncc1C(F)(F)F [Example 177, N2-(3-cyclopropyl-1-methyl-1H-pyrazol-4-yl)-N4-methyl-5-(trifluoromethyl) pyrimidine-2,4-diamine] | 6.7 nM |
| CNc1nc(Nc2cn(C(C)(C)c3ccnn3C)nc2C)ncc1C(F)(F)F [Example 344, N4-methyl-N2-(3-methyl-1-(2-(1-methyl-1H-pyrazol-5-yl)propan-2-yl)-1H-pyrazol-4-yl)-5-(trifluoromethyl) pyrimidine-2,4-diamine] | 1.4 nM |
| CNc1nc(Nc2cn(CC(C)(C)O)nc2C(F)(F)F)ncc1C(F)(F)F [Example 198, 2-methyl-1-(4-(4-(methylamino)-5-(trifluoromethyl)pyrimidin-2-ylamino)-3-(trifluoromethyl)-1H-pyrazol-1-yl)propan-2-ol] | 27 nM |
| CNc1nc(Nc2cn(S(C)(=O)=O)nc2C)ncc1Cl [Example 101, 5-chloro-N4-methyl-N2-(3-methyl-1-(methylsulfonyl)-1H-pyrazol-4-yl)pyrimidine-2,4-diamine] | 8.8 nM |
| CCNc1nc(Nc2cnn(C3CCN(C)CC3)c2C)ncc1C(F)(F)F [Example 207, N4-ethyl-N2-(5-methyl-1-(1-methylpiperidin-4-yl)-1H-pyrazol-4-yl)-5-(trifluoromethyl) pyrimidine-2,4-diamine] | 2.6 nM |
| Cc1c(Nc2ncc(C(F)(F)F)c(NCC3CCOCC3)n2)cnn1C [Example 232, N2-(1,5-dimethyl-1H-pyrazol-4-yl)-N4-((tetrahydro-2H-pyran-4-yl)methyl)-5-(trifluoromethyl) pyrimidine-2,4-diamine] | 9.6 nM |
| CNc1nc(Nc2cn(C3CCN(C4COC4)CC3)nc2C)ncc1C(F)(F)F [Example 131, N4-methyl-N2-(3-methyl-1-(1-(oxetan-3-yl)piperidin-4-yl)-1H-pyrazol-4-yl)-5-(trifluoromethyl) pyrimidine-2,4-diamine] | 37.4 nM |
| CNc1nc(Nc2cnn(C3CCN(CCOC)CC3)c2C)ncc1C(F)(F)F [Example 239, N2-(1-(1-(2-methoxyethyl)piperidin-4-yl)-5-methyl-1H-pyrazol-4-yl)-N4-methyl-5-(trifluoromethyl) pyrimidine-2,4-diamine] | 6 nM |
